Data from US20080131432A1, “Method of treating the chemotoxic effects of chemotherapeutic drugs on brain tissue” (University of Kentucky Research Foundation, priority 2005, published 2008).
“Also recorded” adds a separate entry of the source.

How the values were obtained:
[1] = test system: TNF α; assay: TNF α levels in serum (mouse TNF-α ELISA); assay type: in vivo
Description: Mice were treated with 20 mg/kg ADR or saline as control. Blood samples were collected at 1, 3, 6, 9, 24 hours and allowed to clot at 2-8° C. overnight. Serum samples were used to measure TNF α levels, according to the mouse enzyme-linked immunosorbent assay following the manufacturers' instructions (mouse TNF-α/TNFSF1A immunoassay, R&D Systems, Minneapolis, MN). The TNF α concentration in the sample was calculated from a recombinant mouse TNF α standard curve. The minimum detection limit is typically less than 5.1 pg/mL.
8-week-old male B6C3 mice (25-30 g) were kept under standard conditions. Mice were injected with a single intraperitoneal (i.p.) treatment with adriamycin (doxorubicin hydrochloride, 20 mg/kg), TNF-α, anti-mouse TNF-antibody (40 ng/kg), dipropylenetriamine NONOate (DPTA NONOate, […]), lipopolysaccharide (LPS 1 mg/kg), NG-nitro-L-arginine-methyl esther (L-NAME, 10 mg/kg) or pre-immune IgG.
Mice were treated with 20 mg/kg ADR, TNF-α, anti-mouse TNF-antibody, dipropylenetriamine NONOate, lipopolysaccharide, NG-nitro-L-arginine-methyl esther or pre-immune IgG, as well as saline as control. Blood samples were collected at 3 hours after ADR treatment and allowed to clot at 2-8° C. overnight. Serum samples were used to measure TNF levels, according to the mouse enzyme-linked immunosorbent assay following the manufacturers' instructions (mouse TNF-α/TNFSF1A immunoassay, R&D Systems, Minneapolis, Minn.). The TNF concentration in the sample was calculated from a recombinant mouse TNF standard curve. The minimum detection limit is typically less than 5.1 pg/mL.

[2] = test system: mitochondrial respiration complex I; assay: Brain mitochondrial respiration, complex I (pyruvate + malate), respiration control ratio; settings: iNOSKO mice, 3 hours after treatment
Description: Mice were perfused via cardiac puncture with cold mitochondrial isolation buffer, the brain promptly removed, the cerebellum dissected away, and mitochondria immediately isolated from the freshly brain by a modification of the method described by Mattiazzi et al. (2002). Brain mitochondria were isolated in cold mitochondrial isolation buffer, containing 0.07 M sucrose, 0.22 M mannitol, 20 mM HEPES, 1 mM EGTA, and 1% bovine serum albumin, pH 7.2. Tissues were homogenized with a Dounce homogenizer and centrifuged at 1,500×g at 4° C. for 5 minutes before transferring the supernatant. The pellets were resuspended and centrifuged at 1,500×g at 4° C. for 5 minutes. The supernatants were combined and centrifuged at 13,500×g at 4° C. for 10 minutes. Mitochondrial pellets were washed twice and finally resuspended in 50-100 μL cold isolation buffer. Protein concentration of isolated mitochondria was determined by the Bradford assay (Bradford, 1976). The final protein concentration was 20-40 mg/ml.
Mitochondrial respiration was determined using Clark-type polarographic oxygen sensors (Hansatech Instruments, Kings Lynn, Norfolk, UK) to measure the rate of oxygen consumption. Freshly isolated mitochondria were suspended in respiration buffer at a concentration of 0.5 mg mitochondrial protein per mL of respiration buffer, which consists of 0.25 M sucrose, 50 mM HEPES, 1 mM EGTA, 10 mM KH2PO4, and 2 mM MgCl2, pH 7.4. Oxygen consumption was measured with either pyruvate (10 mM) plus malate (10 mM) or succinate (10 mM) as substrates for respiration from complex I or complex II in the absence of exogenous ADP (state II) and after addition of 300 mM ADP (state III respiration). Rotenone (5 μM) was added to the reaction to inhibit respiration from complex I when succinate was used as the substrate. […] FCCP (1 μM), an uncoupling agent, was added as a control of respiration. Respiration control ratios (RCR) were calculated as the ratios of state III and state II respiration as described previously by Estabrook (1967). The unit for state II rate and state III rate is nmole/min/mg protein.
Mice were perfused via cardiac puncture with cold mitochondrial isolation buffer, the brain promptly removed, the cerebellum dissected away, and mitochondria immediately isolated from the freshly brain by a modification of the method described by Mattiazzi et al. (2002). Brain mitochondria were isolated in cold mitochondrial isolation buffer, containing 0.07 M sucrose, 0.22 M mannitol, 20 mM HEPES, 1 mM EGTA, and 1% bovine serum albumin, pH 7.2. Tissues were homogenized with a Dounce homogenizer and centrifuged at 1,500×g at 4° C. for 3 minutes before transferring the supernatant fluid. The pellets were resuspended and centrifuged at 1,500×g at 4° C. for 3 minutes. The supernatant fluids were combined and centrifuged at 1,500×g at 4° C. for 3 minutes. These supernatant fluids were then centrifuged at 13,500×g at 4° C. for 10 minutes. Mitochondrial pellets were washed twice and finally resuspended in 50-100 μL cold isolation buffer. Protein concentration of isolated mitochondria was determined by the Bradford assay (Bradford, 1976).
Mitochondrial respiration was determined using Clark-type polarographic oxygen sensors (Hansatech Instruments, UK) to measure the rate of oxygen consumption. Freshly-isolated mitochondria were suspended in respiration buffer at a concentration of 0.5 mg mitochondrial protein/mL respiration buffer, which consisted of 0.25 M sucrose, 50 mM HEPES, 1 mM EGTA, 10 mM KH2PO4, 2 mM MgCl2 and 0.2% BSA, pH 7.4. Oxygen consumption was measured with either pyruvate (10 mM) or pyruvate plus malate (10 mM) as substrates for respiration from complex I, in the absence of exogenous ADP (state II), and after addition of 300 mM ADP (state III respiration). […] FCCP (1 μM), an uncoupling agent, was added as a control respiration. Respiration control ratios (RCR) were calculated as the ratios of state III and state II respiration.

[3] = test system: MnSOD; settings: wild-type mice
[4] = test system: iNOS mRNA; assay: iNOS mRNA expression in brain tissues (RT-PCR); assay type: in vivo, mouse; settings: wild-type mice, 3 hours after treatment, vs saline controls
Description: At 3 hours after treatment, mice were anesthetized and perfused via cardiac puncture with 0.1 M PBS, pH 7.4. The MRNA was isolated using the Micro-FastTrack 2.0 Kit (Invitrogen, Groningen, Netherlands) according to the manufacturer's instructions. The purified MRNA (5 μg) was subjected to reverse-transcription into first strand cDNA in each 20 μL of reaction mixture using the SuperScript III First-Strand Synthesis System for RT-PCR (Invitrogen) according to the manufacturer's instruction. A 25 μL PCR reaction contained 5 μL first strand cDNA, 0.1 U Taq DNA polymerase (Invitrogen), 10 mM 10×PCR buffer, 1.5 mM MgCl2, 2.5 mM dNTP and 10 pmol of each specific primer. PCR samples were subjected to the following conditions: 35 cycles for iNOS (94° C.: 1 minute; 65° C.: 1 minute; 72° C.: 1 minute), 32 cycles for β-actin (94° C.: […]; 55° C.: 30 s; 72° C.: 10 minutes), on a thermocycle (Perkin-Elmer). The primers with the target gene sequences were synthesized by Invitrogen. The primer sequence iNOS was 5′-CTGATGGTCAAGATCCAG-A-GGTCT-3′ (forward) and 5′-[…]-CTCT-3′(reverse), and the primer for β-actin was 5′-TGTTAC-CAACTGGGACGACA-3′ (forward) and 5′-CTGGGTCATCTT-TTCACCGT-3′ (reverse). After amplification, PCR products were subjected to 1% agarose gel electrophoresis, and visualized by ethidium bromide staining. The relative density of bands was analyzed under ultraviolet light (Bio-Rad). Experiments were repeated three times for reproducibility.

NCCCN(CCCN)/[N+]([O-])=N/O [DPTA NONOate, dipropylenetriamine NONOate]
TNF-α level in serum (circulating TNF-α) ([1]; iNOSKO mice, 3 hours after treatment): did not lead to changes; also recorded: had no effect
Brain mitochondrial respiration complex I (RCR) [2]: significantly lowered; also recorded: causes mitochondrial dysfunction

COC(=O)[C@@H](N)CCCNC(=N)N[N+](=O)[O-] [L-NAME, NG-nitro-L-arginine-methyl esther]
MnSOD activity in brain vs saline- or ADR-treated mice ([3]; L-NAME 10 mg/kg i.p.): led to increased MnSOD activity
Effect on ADR-induced MnSOD inactivation ([3]; L-NAME with ADR): prevented MnSOD inactivation

TNF-α
TNF α level in serum (circulating TNF α) ([1]; wild-type mice, 3 hours after single i.p. treatment, vs saline control): increased
iNOS mRNA levels in brain tissues [4]: significantly increased

lipopolysaccharide [LPS]
iNOS mRNA levels in brain tissues [4]: significantly increased
